# Like-named read-outs stand apart in the source and are kept apart here.
# Legend:
# [1] = test system: NL4-3 Rluc virus; assay: microbe, parasite or virus in culture; type: cell-based, HIV; settings: Human immunodeficiency virus 1, NL43, MT2, 96 h, MT-2 cells, MOI 0.02, 96 hours
# [2] = test system: E. coli ATCC25922; assay: MIC assay, serial dilution; settings: Escherichia coli
# [3] = test system: Hennes-20 cells; assay: Hennes-20 oncology screen; type: cell-based; settings: 72 h, alamar Blue
# Description: To screen compounds for oncology activity Hennes-20 cells were plated at low (500 cells/well) versus high (15,000 cells/well) densities and treated with DMSO (vehicle) or dose-titration of compounds. The rationale for this screen is that an intrinsically toxic compound should kill cells regardless of density, including in Hennes-20 cells. However, a compound that selectively triggers the arrest of proliferation will inhibit cell growth when plated at a low density will appear cytotoxic due to inhibition of cell growth when plated at a low density but will appear non-toxic to cells plated at a high density where the cells are approaching confluence and the readout detected by a cell viability assay is already close to the maximum.
# To conduct the Hennes-20 screen, two 96 well plates were seeded with Hennes 20 cells in parallel where one was plated at a density of 500 cells/well and the other was plated at a density of 15,000 cells/well. 90 uL of minimum essential media was added to each well and plates were placed in a 37 degrees Celsius incubator for 24 hours. The next day, 10 ul of media containing dilutions of compound in DMSO were added to each plate. Six wells on each plate received 10 ul of media containing only DMSO. Each well was gently mixed 5 times with a 100 ul pipette. Plates were incubated at 37 degrees Celsius for 72 hours and then 10 uL of alamar Blue was added to each well. Wells were mixed 5 times then incubated at 37 degrees Celsius for […]. Plates were then read at 530/590.
# The rationale for the screen is as follows: Hennes-20 cells lack endogenous apoptosis. Cells plated at low density will proliferate and approach confluence in 72 hrs. A drug that arrests proliferation may have its proliferation blocking effect masked by the triggering of endogenous apoptosis. However, in the Hennes line, lacking endogenous apoptosis, such an arrest is manifest as a dose-dependent maintenance at low cell density. Since the high-density cells are plated close to confluence, the difference between Alamar Blue cell survival readings after 72 hrs reflects the ability of the drug to block proliferation in the low density-plated cells. In the high density-plated cells any diminution of Alamar Blue readout vs vehicle control is due to intrinsic toxicity, not proliferation arrest, since cells were already at confluence. Thus, a compound that appears toxic (low Alamar Blue readings after 72 hrs) on the low-density plate, but which appears non-toxic (high Alamar Blue readings after 72 hrs) on the high-density plate, must be arresting proliferation, since intrinsic compound toxicity should be observed at both low and high cell densities, not selectively on the low-density plate.
# [4] = test system: C. albicans ATCC 24433; assay: Antifungal MIC assay; settings: Candida albicans, ATCC24433
# [5] = test system: S. aureus ATCC25923; assay: MIC assay, serial dilution; settings: Staphylococcus aureus
# [6] = test system: A. baumannii ATCC19606; assay: MIC assay, serial dilution; settings: Acinetobacter baumannii
# [7] = test system: VACV-LUC virus; assay: microbe, parasite or virus in culture; type: cell-based; settings: Orthopoxvirus vaccinia, HeLa, 2 h
# [8] = ATCC25922, read-out: Anti-bacterial Activity (E. coli MIC (uM)), E. coli, Table 5
SMILES,EC50 [1] [µM],"MIC [2, 8] [µM]",EC50 [3] [nM],MIC [4] [µM],MIC [5] [µg/mL],"MIC ([2]; ATCC25922, E. coli ATCC25922) [µg/mL]",MIC [6] [µg/mL],EC50 [7] [nM]
CCc1cc(N2CCSCC2)cc2[s+]c3cc(N4CCSCC4)cc(C)c3nc12 [Compound 99],26,6.3,–,–,–,–,–,–
CCN(CC)c1cc(N2CCCC2)cc2[s+]c3cc(N4CCCC4)ccc3nc12 [Compound 117],–,–,12500,1.6,1.6,25,12.5,–
c1cc2nc3ccc(N4CCSCC4)cc3[s+]c2cc1N1CCSCC1 [Compound 143],–,–,–,> 100,–,–,–,–
CCc1cc(N2CCCNCC2)cc2[s+]c3cc(N4CCCNCC4)cc(C)c3nc12 [Compound 16],4.8,–,–,–,–,–,–,–
c1cc2nc3c(N4CCCNCC4)cc(N4CCCC4)cc3[s+]c2cc1N1CCCC1 [Compound 119],–,–,12500,6.25,25,100,> 100,–
CCc1cc(N2CCOCC2)cc2[s+]c3cc(N4CCOCC4)cc(C)c3nc12 [Compound 97],0.23,25,–,–,–,–,–,–
CCc1cc(NC(C)C)cc2[s+]c3cc(N4CCCN(C(=O)OC(C)(C)C)CC4)cc(CC)c3nc12 [Compound 69],–,–,< 500,–,–,–,–,< 5000
CC(C)(C)c1cc(N2CC3C(C2)C3(C)C)cc2[s+]c3cc(N4CC5C(C4)C5(C)C)cc(N4CC5C(C4)C5(C)C)c3nc12 (stereo not drawn) [Compound 126],–,–,500,12.5,100,> 100,> 100,–
CC(C)(C)c1cc(N2CCCC2)cc2[s+]c3cc(N4CCCC4)cc(Br)c3nc12 [Compound 132],–,–,–,12.5,6.25,100,12.5,–
C1=CCN(c2ccc3nc4ccc(N5CC=CC5)cc4[s+]c3c2)C1 [Compound 136],–,–,–,> 100,25,> 100,> 100,–
CC1(C)C2CN(c3ccc4nc5ccc(N6CC7C(C6C(=O)O)C7(C)C)cc5[s+]c4c3)C(C(=O)O)C21 (stereo not drawn) [Compound 127],–,–,–,> 100,> 100,> 100,> 100,–
CC1(C)C2CN(c3ccc4nc5ccc(N6C7CCCC6CC7)cc5[s+]c4c3)CC21 (stereo not drawn) [Compound 147],–,–,–,3.1,1.6,100,25,–
CCc1cc(N2CCC(N(C)C)CC2)cc2[s+]c3cc(N4CCC(N(C)C)CC4)cc(C)c3nc12 [Compound 98],38,–,–,–,–,–,–,–
c1cc2nc3ccc(N4C5CCCC4CC5)cc3[s+]c2cc1N1C2CCCC1CC2 [Compound 146],–,–,–,6.25,3.1,> 100,25,–
c1cc2nc3c(N4CCCC4)cc(N4CCCC4)cc3[s+]c2cc1N1C2CCCC1CC2 [Compound 145],–,–,–,1.6,1.6,25,6.25,–
COC(=O)C1C2C(CN1c1ccc3nc4ccc(N5CC6C(C5C(=O)OC)C6(C)C)cc4[s+]c3c1)C2(C)C (stereo not drawn) [Compound 129],–,–,–,> 100,12.5,> 100,> 100,–
CC1(C)C2CN(c3ccc4nc5c(N6CC7C(C6)C7(C)C)cc(N6CCCC6)cc5[s+]c4c3)CC21 (stereo not drawn) [Compound 124],–,–,–,1.6,6.25,100,12.5,–
Cc1cc(C(C)C)cc2[s+]c3cc(N(C)C)cc(C)c3nc12 [Compound 59],–,–,< 500,–,–,–,–,560
c1cc2nc3ccc(N4CCCNCC4)cc3[s+]c2cc1N1CCCNCC1 [Compound 139],–,–,–,> 100,> 100,> 100,> 100,–
CC(C)(C)OC(=O)NCC1CCCN1c1ccc2nc3ccc(N4CCCC4CNC(=O)OC(C)(C)C)cc3[s+]c2c1 (stereo not drawn) [Compound 49],–,1.6,< 2500,–,–,–,–,–
CCc1cc(N(C)C)cc2[s+]c3cc(N4CCCN(C(=O)OC(C)(C)C)CC4)cc(CC)c3nc12 [Compound 74],–,6.3,< 500,–,–,–,–,–

# Reference: US20240300940A1, “Phenothiazinyl Compounds and Uses” (Prosetta Biosciences, Inc., priority 2023, published 2024)
